From US4174404A, “Deoxynarasin antibiotics” (Eli Lilly and Company, priority 1978, dated 1979)
Values after ≈ are worked out from the molar mass of the structure shown. Where a name gives a salt, the structure may show the parent alone.

How the values were obtained:
[1] = test system: M. gallisepticum; assay: in vitro broth-dilution MIC, Mycoplasma; format: cell-based; conditions: Mycoplasmoides gallisepticum
Description: (§1) Activity against Mycoplasma is another useful aspect of the antimicrobial activity of the deoxynarasin antibiotics. Mycoplasma species, also known as pleuropneumonia-like (PPLO) organisms, are pathogenic to man and various animals. Agents active against PPLO organisms are especially needed by the poultry industry. The minimal inhibitory concentrations (MIC) of 20-deoxy-epi-17-narasin (free acid) against illustrative Mycoplasma species, as determined by in vitro broth-dilution studies, are summarized in Table VI.

[2] = test system: M. synoviae; assay: in vitro broth-dilution MIC, Mycoplasma; format: cell-based; conditions: Mycoplasmopsis synoviae
Description: as §1

[3] = test system: M. hyorhinis; assay: in vitro broth-dilution MIC, Mycoplasma; format: cell-based; conditions: Mesomycoplasma hyorhinis
Description: as §1

[4] = test system: Propionibacterium acnes 79; assay: agar-dilution MIC, anaerobic bacteria; format: cell-based; conditions: Cutibacterium acnes, 24-hour incubation
Procedure: (§2) In one aspect, the deoxynarasin antibiotics inhibit the growth of anaerobic bacteria. The minimal inhibitory concentrations (MIC) at which 20-deoxy-epi-17-narasin (free acid) inhibits various anaerobic bacteria, determined by standard agar-dilution assay, are summarized in Table V. End points were read after 24-hour incubation period.

[5] = test system: Eubacterium aerofaciens 1235; assay: agar-dilution MIC, anaerobic bacteria; format: cell-based; conditions: Collinsella aerofaciens, 24-hour incubation
Procedure: as §2

[6] = test system: Peptococcus prevoti 1281; assay: agar-dilution MIC, anaerobic bacteria; format: cell-based; conditions: 24-hour incubation
Procedure: as §2

[7] = test system: Peptostreptococcus anaerobius 1428; assay: agar-dilution MIC, anaerobic bacteria; format: cell-based; conditions: 24-hour incubation
Procedure: as §2

[8] = test system: Peptococcus asaccharolyticus 1302; assay: agar-dilution MIC, anaerobic bacteria; format: cell-based; conditions: Peptoniphilus asaccharolyticus, 24-hour incubation
Procedure: as §2

[9] = test system: Actinomyces israelii W855; assay: agar-dilution MIC, anaerobic bacteria; format: cell-based; conditions: 24-hour incubation
Procedure: as §2

[10] = test system: Clostridium septicum 1128; assay: agar-dilution MIC, anaerobic bacteria; format: cell-based; conditions: 24-hour incubation
Procedure: as §2

[11] = test system: Bacteroides fragilis 111; assay: agar-dilution MIC, anaerobic bacteria; format: cell-based; conditions: 24-hour incubation
Procedure: as §2

[12] = test system: Peptostreptococcus intermedius 1264; assay: agar-dilution MIC, anaerobic bacteria; format: cell-based; conditions: 24-hour incubation
Procedure: as §2

[13] = test system: Clostridium perfringens 81; assay: microbe, parasite or virus in culture; format: cell-based; conditions: Clostridium perfringens, 81, 24 h
[14] = test system: rumen flora; assay: in vitro rumen volatile-fatty-acid (VFA) test; design: species or system ruminants
Description: As discussed, efficiency of carbohydrate utilization in ruminants is increased by treatments which stimulate the animal's rumen flora to produce propionate compounds rather than acetate or butyrate compounds. The efficiency of feed use can be monitored by observing the production and concentration of propionate compounds in rumen fluid, using methods as described in U.S. Pat. No. 4,038,384.
Results of in vitro tests with 20-deoxynarasin (Na salt) and 20-deoxy-epi-17-narasin (free acid), showing the ratio of volatile-fatty-acid (VFA) concentrations in treated flasks to concentrations in control flasks, are shown in Table VIII.

[15] = test system: Streptococcus pyogenes (Group A); assay: disc-diffusion method, zone of inhibition; format: cell-based
Description: (§3) The deoxynarasin antibiotics of this invention are antibacterial agents. For example, the relative microbiological activity of 20-deoxy-epi-17-narasin (free acid) is described in Table IV. The conventional disc-diffusion method was used.

[16] = test system: Staphylococcus aureus 3074 (Penicillin G Resistant); assay: disc-diffusion method, zone of inhibition; format: cell-based
Description: as §3

[17] = test system: Diplococcus pneumoniae; assay: disc-diffusion method, zone of inhibition; format: cell-based; conditions: Streptococcus pneumoniae
Description: as §3

[18] = test system: Staphylococcus aureus 3130 (Methicillin Resistant); assay: disc-diffusion method, zone of inhibition; format: cell-based
Description: as §3

[19] = test system: Staphlococcus aureus 3055; assay: disc-diffusion method, zone of inhibition; format: cell-based
Description: as §3

[20] = test system: Streptococcus sp. (Group D); assay: disc-diffusion method, zone of inhibition; format: cell-based
Description: as §3

[21] = test system: mice; assay: acute toxicity, intraperitoneal, mice; format: in vivo; conditions: intraperitoneally to mice
[22] = test system: rhinovirus type 3; assay: in vitro plaque suppression test; format: cell-based; conditions: rhinovirus type 3, in vitro
Description: (§4) The deoxynarasin antibiotics are also antiviral agents.

[23] = test system: influenza A virus; assay: in vitro plaque suppression test; format: cell-based
Description: as §4

[24] = test system: vacinnia virus; assay: in vitro plaque suppression test; format: cell-based
Description: as §4

[25] = test system: herpesvirus; assay: in vitro plaque suppression test; format: cell-based
Description: as §4

[26] = test system: Eimeria tenella; assay: in vitro anticoccidial activity; format: cell-based
Description: Anticoccidial activity is an important property of the deoxynarasin antibiotics of this invention.

[27] = solubility; format: physicochemical; conditions: for solubility in nonpolar organic solvents: nonpolar organic solvents such as hexane; for solubility in organic solvents: organic solvents (methanol, ethanol, dimethylformamide, dimethyl sulfoxide, ethyl acetate, chloroform, acetone, benzene)
Description: The deoxynarasin antibiotic complex comprises 20-deoxynarasin and 20-deoxy-epi-17-narasin which are obtained from the fermentation as a mixture. 20-Deoxynarasin and 20-deoxy-epi-17-narasin are separated from the deoxynarasin complex and isolated as individual compounds as hereinafter described. The deoxynarasin complex also contains minor factors which are removed by the procedures described. The deoxynarasin antibiotic complex is soluble in most organic solvents, but is insoluble in water.
(§5) For example, 20-deoxynarasin acid (435.1 mg) was dissolved in methanol (40 ml) and allowed to stand at room temperature for four hours. The solution was then evaporated to dryness under vacuum; the residue was redissolved in dioxane and lyophilized to give 417.8 mg of 20-deoxy-epi-17-narasin acid.

[28] = biological target: cation transport ATPase in liver mitochondria; assay: in vitro ATPase inhibition; format: biochemical
Description: In yet another aspect, 20-deoxynarasin and its salts are active as an inhibitor of the enzyme ATPase. ATPase, an alkali-metal-sensitive enzyme found in cell membranes, is involved in the energy necessary for active transport. "Active transport" refers to the energy-requiring series of operations whereby intracellular and extracellular fluids maintain their compositions. Inhibitors of ATPase reduce the energy required for active transport. In vitro tests have shown that 20-deoxynarasin (Na salt) inhibits cation transport ATPase in liver mitochondria at a half effective concentration of 0.065 mcg/ml.

[29] = test system: isolated guinea-pig atria; assay: isolated guinea-pig atria contractility; format: cell-based; conditions: Cavia porcellus; 10^-5 molar; percentage of maximal contractile tension elicited by norepinephrine challenge; n=4; read-out: mean (± standard error) increase in contractile tension
Description: 20-Deoxynarasin and its salts are also potential cardiotonic agents. In tests using isolated guinea-pig atria, for example, 20-deoxynarasin increased cardiac contractility. Response to this test is expressed as a percentage of the maximal contractile tension that could be elicited by a challenge dose of norepinephrine (10^-4)M). 20-Deoxynarasin (Na salt), at a 10^-5 molar concentration, produced a mean (± standard error) increase in contractile tension of 43.8±1.4 (n=4) percent. For a more detailed description of this test, see U.S. Pat. No. 3,985,893.

[30] = stability in alcohols; format: physicochemical; conditions: converts to 20-deoxy-epi-17-narasin free acid (methanol, room temperature, four hours)
Procedure: as §5

[31] = test system: Eimeria tenella; assay: feeding experiment in young chickens challenged with Eimeria tenella; format: in vivo; conditions: 100 ppm in the diet, chicks challenged with Eimeria tenella, Na salt
Description: A feeding experiment in young chickens confirms that the deoxynarasin antibiotics have anticoccidial activity in vivo.

CCC(C(=O)O)C1OC(C(C)C(O)C(C)C(=O)C(CC)C2OC3(C=CCC4(CCC(C)(C5CCC(O)(CC)C(C)O5)O4)O3)C(C)CC2C)C(C)CC1C (stereo not drawn) [20-deoxy-epi-17-narasin]
MIC [1]: 25 µg/mL (≈ 33.4 µM)
MIC [2]: 50 µg/mL (≈ 66.8 µM)
MIC [3]: 50 µg/mL (≈ 66.8 µM)
MIC [4]: 2 µg/mL (≈ 2.67 µM)
MIC [5]: 16 µg/mL (≈ 21.4 µM)
MIC [6]: 4 µg/mL (≈ 5.34 µM)
MIC [7]: 4 µg/mL (≈ 5.34 µM)
MIC [8]: 8 µg/mL (≈ 10.7 µM)
MIC [9]: 8 µg/mL (≈ 10.7 µM)
MIC [10]: 16 µg/mL (≈ 21.4 µM)
MIC [11]: > 128 µg/mL
MIC [12]: 4 µg/mL (≈ 5.34 µM)
MIC [13]: 16 µg/mL (≈ 21.4 µM)
Ratio of Treated to Control, Molar % acetate ([14]; dose 2 mcg/ml): 0.9581
Ratio of Treated to Control, Molar % butyrate ([14]; dose 2 mcg/ml): 0.9414
Ratio of Treated to Control, Molar % propionate ([14]; dose 2 mcg/ml): 1.0858
Ratio of Treated to Control, Total VFA ([14]; dose 2 mcg/ml): 1.0717
Ratio of Treated to Control, Molar % acetate ([14]; dose 5 mcg/ml): 0.9237
Ratio of Treated to Control, Molar % butyrate ([14]; dose 5 mcg/ml): 0.8201
Ratio of Treated to Control, Molar % propionate ([14]; dose 5 mcg/ml): 1.1836
Ratio of Treated to Control, Total VFA ([14]; dose 5 mcg/ml): 1.0487
Ratio of Treated to Control, Molar % acetate ([14]; dose 10 mcg/ml): 0.9093
Ratio of Treated to Control, Molar % butyrate ([14]; dose 10 mcg/ml): 0.6560
Ratio of Treated to Control, Molar % propionate ([14]; dose 10 mcg/ml): 1.2665
Ratio of Treated to Control, Total VFA ([14]; dose 10 mcg/ml): 1.0325
zone of inhibition at 30 µg/disc ([15]; 30 mcg/disc): 10 mm
zone of inhibition at 300 µg/disc ([15]; 300 mcg/disc): 12 mm
zone of inhibition at 30 µg/disc ([16]; 30 mcg/disc): 15.4 mm
zone of inhibition at 300 µg/disc ([16]; 300 mcg/disc): 19.5 mm
zone of inhibition at 30 µg/disc ([17]; 30 mcg/disc): 13 mm
zone of inhibition at 300 µg/disc ([17]; 300 mcg/disc): 16 mm
zone of inhibition at 30 µg/disc ([18]; 30 mcg/disc): 17.2 mm
zone of inhibition at 300 µg/disc ([18]; 300 mcg/disc): 19 mm
zone of inhibition at 30 µg/disc ([19]; 30 mcg/disc): 13.8 mm
zone of inhibition at 300 µg/disc ([19]; 300 mcg/disc): 16.9 mm
zone of inhibition at 30 µg/disc ([20]; 30 mcg/disc): 14.6 mm
zone of inhibition at 300 µg/disc ([20]; 300 mcg/disc): 17 mm
acute toxicity LD50 [21]: 201 mg/kg
antiviral activity (plaque suppression) [22]: active
antiviral activity (plaque suppression) [23]: active
antiviral activity (plaque suppression) [24]: active
antiviral activity (plaque suppression) [25]: active
level at which active against Eimeria tenella (as low as) [26]: 0.2 ppm
solubility in nonpolar organic solvents [27]: only slightly soluble
solubility in organic solvents [27]: soluble
solubility in water [27]: insoluble

CCC(C(=O)O)C1OC(C(C)C(O)C(C)C(=O)C(CC)C2OC3(C=CCC4(CCC(C)(C5CCC(O)(CC)C(C)O5)O4)O3)C(C)CC2C)C(C)CC1C (stereo not drawn) [20-deoxynarasin (Na salt)]
half effective concentration, inhibition of cation transport ATPase [28]: 0.065 µg/mL
acute toxicity LD50 [21]: 5 mg/kg
activation at 10 µM [29]: 43.8 ± 1.4%
minimal effective concentration ([26]; Eimeria tenella, read-out: level at which active against Eimeria tenella (as low as)): 0.2 µg/mL

CCC(C(=O)O)C1OC(C(C)C(O)C(C)C(=O)C(CC)C2OC3(C=CCC4(CCC(C)(C5CCC(O)(CC)C(C)O5)O4)O3)C(C)CC2C)C(C)CC1C (stereo not drawn) [20-deoxynarasin, 20-Deoxynarasin]
Ratio of Treated to Control, Molar % acetate ([14]; dose 0.1 mcg/ml): 0.9504
Ratio of Treated to Control, Molar % butyrate ([14]; dose 0.1 mcg/ml): 0.6870
Ratio of Treated to Control, Molar % propionate ([14]; dose 0.1 mcg/ml): 1.2148
Ratio of Treated to Control, Total VFA ([14]; dose 0.1 mcg/ml): 1.1892
Ratio of Treated to Control, Molar % acetate ([14]; dose 0.3 mcg/ml): 0.9084
Ratio of Treated to Control, Molar % butyrate ([14]; dose 0.3 mcg/ml): 0.4582
Ratio of Treated to Control, Molar % propionate ([14]; dose 0.3 mcg/ml): 1.3799
Ratio of Treated to Control, Total VFA ([14]; dose 0.3 mcg/ml): 1.1829
Ratio of Treated to Control, Molar % acetate ([14]; dose 1 mcg/ml): 0.8727
Ratio of Treated to Control, Molar % butyrate ([14]; dose 1 mcg/ml): 0.3942
Ratio of Treated to Control, Molar % propionate ([14]; dose 1 mcg/ml): 1.4597
Ratio of Treated to Control, Total VFA ([14]; dose 1 mcg/ml): 1.2096
stability in alcohols [30]: unstable
solubility in nonpolar organic solvents [27]: only slightly soluble
solubility in organic solvents [27]: soluble
solubility in water [27]: insoluble
% Mortality [31]: 0%
Weight Gain [31]: 185 g
Lesion Score ([31]; maximum possible score = 4.00): 0.13
